Experimental data reported in US20250091911A1, “NANOFILTRATION SYSTEM AND METHOD INCLUDING PRETREATMENT WITH GREEN SORPTION MEDIA” (University of Central Florida Research Foundation, Inc., priority 2023, published 2025).

How the values were obtained:
[1] = Overall removal by ZIPGEM-nanofiltration water treatment system
Text: Water samples collected from the C-23 canal were first fortified with PFOS and PFOA and then used as influents to the pretreatment column containing one of the two green sorption media. Note the water samples were not fortified with PFBA and PFBS. The green sorption media effluent served as the feedwater for the nanofiltration unit of the proposed water treatment system. The nanofiltration membrane unit without any green sorption media-based pretreatment served as the “control.” The integration of a green sorption media (CPS or ZIPGEM) with crossflow nanofiltration is herein referred to as a water treatment system, denoted as CPS-nanofiltration or ZIPGEM-nanofiltration. The CPS and ZIPGEM column influents and effluents and nanofiltration permeates were analyzed for both long-chain (PFOS and PFOA) and short-chain (PFBS and PFBA) PFAS. FIG. 3 presents the green sorption media-nanofiltration hybrid treatment scheme.
The average removal efficiencies of each media pretreatment were calculated based on PFAS concentrations in the influents and effluents of triplicate columns, as disclosed in TABLE 5. […] The overall efficiency of the hybrid treatment was calculated by comparing the average concentrations of PFAS in the influents of the green sorption media pretreatment columns and the nanofiltration permeates, as disclosed in TABLE 6.
where C0 is the concentration of PFAS in the column influent or nanofiltration feed in ng·L^−1, and where Ce is the concentration of PFAS in the column effluent or nanofiltration permeate in ng·L^−1. TABLE 7 summarizes the key findings of the green sorption media-based pretreatment and green sorption media-nanofiltration treatment, and these are explained in the subsequent subsection through an in-depth discussion and statistical analysis. It should be noted that PFOS concentration was slightly higher in the membrane permeates compared to the effluent of green sorption media pretreatment media, as disclosed in TABLE 5. The slight increase in PFOS concentration could be attributed to the filtration experimental setup that operated in a total recirculation mode. However, most of the differences were very close to the MDL for PFOS (1 ng·L^−1), which was already undetected in the green sorption media effluent

[2] = cited from earlier work

Row | Structure (SMILES) | O = overall removal by water treatment system ([1]; column 1) [%] | O = overall removal by water treatment system ([1]; column 2) [%] | O = overall removal by water treatment system ([1]; column 3) [%] | pKa [2]
1 | O=S(=O)(O)C(F)(F)C(F)(F)C(F)(F)C(F)(F)C(F)(F)C(F)(F)C(F)(F)C(F)(F)F [PFOS, Perfluorooctanesulfonic acid] | 100 | 100 | 100 | 0.14
2 | O=C(O)C(F)(F)C(F)(F)C(F)(F)C(F)(F)C(F)(F)C(F)(F)C(F)(F)F [PFOA, Perfluorooctanoic acid] | 73 | 82 | 70 | −0.20
3 | O=C(O)C(F)(F)C(F)(F)C(F)(F)F [PFBA, Perfluorobutanoic acid] | 40 | 36 | 41 | 0.40
4 | O=S(=O)(O)C(F)(F)C(F)(F)C(F)(F)C(F)(F)F [PFBS, Perfluorobutanesulfonic acid] | 28 | 35 | 35 | 0.14
